Measurements: US20100240605A1, “NOVEL IMMUNOTHERAPY STRATEGY” (priority 2007, published 2010)
“Also recorded” adds a separate entry of the source. Like-named read-outs stand apart in the source and are kept apart here.

How the values were obtained:
[1] = tested on: B16-F1 mouse melanoma tumors; test: Syngeneic B16-F1 melanoma tumors in C57BI6 mice, intratumoral injection; assay type: in vivo; settings: for effect on tumor expansion: single intratumoral dose of 100 μg at day 1 post tumor inoculation, COAM, heparin, saline compared
Description: We used B16-F1 mouse melanoma tumors in C57BI6 mice. 0.5 million tumor cells were injected intradermally on day 0 as known in the art. In one experiment, control mice were injected with saline on days 1, 8 and 15. The treated group COAM d1 was injected intratumorally with a single dose of 100 μg COAM on day1. The treated group COAM d1, d8, d15 was injected with 100 μg COAM three times intratumorally. […] In some cases the tumor ulcerated.
At day 18, all tumors were excised and their volumes and weights were measured.
In particular, in the FIGS. 5 A, B, C and D, we used heparin as an additional control. […] Heparin is a polyanion and binds chemokines and mimics heparin sulphate proteoglycans. The experiment was repeated as above with a single intratumoral dose of 100 μg COAM, 100 μg heparin and saline control at day 1 post tumor inoculation.

[2] = tested on: various human and mouse cell lines; test: Toxicity of the test solution on cell lines; assay type: cell-based; settings: test solution (2 mg COAM in 100 μl 0.9% NaCl)
[3] = target: T1, mouse granulocyte chemotactic protein-2 (mGCP-2) (Mus musculus, UniProt P50228); test: Chemokine binding in solution, gel filtration chromatography with ELISA of fractions
T1 sequence (P50228 41-132): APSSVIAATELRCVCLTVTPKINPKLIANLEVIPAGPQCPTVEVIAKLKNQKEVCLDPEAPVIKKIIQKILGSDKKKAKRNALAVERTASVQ
Description: The COAM preparation was incubated with 50 nanogram mouse GCP-2 and the mixture was analysed by gel filtration chromatography (lower figure) and the presence of GCP-2 in the column fractions was analysed with a sensitive ELISA for mouse GCP-2.
(§1) COAM alone, mGCP-2 or COAM incubated in the presence of mGCP-2 were separated by classical gel filtration chromatography. The elution fractions were collected and the presence of mGCP-2 was determined in the elution fractions by ELISA specific for mGCP-2. […] Since COAM itself is a mixture of polymers with different lengths, we fractioned first COAM in three fractions and then repeated the mGCP-2 binding and chromatographic analysis (as described above) with the high molecular weight COAM (high MW COAM) and mGCP-2. […] This is illustrated in FIG. 2.

[4] = target: T2, human interleukin-8/CXCL8 (IL-8/CXCL8) (Homo sapiens, UniProt P10145); test: Chemokine binding in solution, gel filtration chromatography; settings: 500 ng IL-8/CXCL8; free IL-8 eluted at low molecular masses
T2 sequence (P10145 21-99): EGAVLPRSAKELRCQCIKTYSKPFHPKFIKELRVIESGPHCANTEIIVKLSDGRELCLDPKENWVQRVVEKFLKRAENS
Description: as §1
In a second set of experiments human 500 ng interleukin-8/CXCL8 (IL-8/CXCL8) was tested.

[5] = target: human monocyte chemotactic protein-1/CCL2 (MCP-1/CCL2) (Homo sapiens, UniProt P13500); test: as above; settings: 500 ng MCP-1/CCL2; free MCP-1 eluted at low molecular weight
Description: as §1
In a third set, 500 ng human monocyte chemotactic protein-1/CCL2 (MCP-1/CCL2) was tested. Again, free MCP-1 eluted at low molecular weight, compatible with the relative size of MCP-1. […] This is again compatible with its binding to COAM

[6] = target: T3, synthetic human IP-10/CXCL10 (Homo sapiens, UniProt P02778); test: as above; settings: no separate IP-10 result printed
T3 sequence (P02778 22-98): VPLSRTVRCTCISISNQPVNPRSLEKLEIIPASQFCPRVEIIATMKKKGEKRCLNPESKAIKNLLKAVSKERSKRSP
Source text: In a fourth example, we used synthetic human IP-10/CXCL10.

[7] = tested on: B16-F1 cells; test: B16 melanoma formation in immunocompromised SCID mice; assay type: in vivo; settings: 500 000 B16-F1 cells s.c. on day 0
Source text: We used a similar protocol as above in immunocompromised SCID mice. The SCID mice received s.c. 500 000 B16-F1 cells on day 0.

[8] = tested on: CD11b+Gr-1+ cells (neutrophils); test: EAE model: neutrophil mobilization to the peritoneal cavity and infiltration of spinal cord and brain; assay type: in vivo, mice; settings: for CD11b^+Gr-1^+ cells in the peritoneal cavity: 2 mg COAM i.p. on day 0 and 7
Description: FIG. 9: Mobilization of neutrophils into the peritoneal cavity in response to COAM. Mice were immunized with SCH in CFA and treated with COAM (2 mg) or saline on days 0 and 7. Peritoneal cells were collected on days 5, 9 and 14, or 16 post immunization. […] Data represent three individual experiments taken together; bars represent averages±standard error of the mean of seven or nine mice. (B) Flow cytometric analysis of peritoneal cells of control mice and COAM-treated mice. Cells were stained for the presence of CD11b using FITC-labeled antibodies, and of Gr-1 using PE-labeled antibodies. Numbers indicated on each graph represent percent CD11b^+Gr-1^+ cells. One representative analysis out of 9 is shown.
FIG. 10: Neutrophil infiltration in the spinal cord and brain of COAM-treated mice is reduced compared with saline-treated control mice. […] Data of 3 pooled experiments are shown. Histograms represent averages±SEM. (B) Flow cytometry of cells isolated from the spinal cord and brain on day 16 post immunization of mice treated with COAM (2 mg) or saline on days 0 and 7. Cells were stained for CD11b and Gr-1. Numbers indicated on each graph represent percent CD11b^+Gr-1^+ cells. Each plot represents a staining pattern of pooled cells from 3 mice. Results are representative of three independent experiments with similar results.
(§2) Experimental autoimmune encephalomyelitis was induced in mice (mice were immunized with SCH in CFA) and the groups were randomized. One group was treated with 2 mg COAM intraperitoneally on day 0 and day 7.
Mice were immunized with SCH in CFA on day 0 and treated i.p. with 2 mg COAM or saline on day 0 and 7. Cells were obtained from the peritoneal cavity of saline- and COAM-treated mice on day 5, 9 and 14, 15 or 16 after immunization. Cells were stained with anti-CD11b-FITC and anti-Gr-1-PE antibodies. The proportion of CD11b^+Gr-1^+ cells is shown. Results represent pooled data from 3 experiments and N indicates the total number of mice examined. *p<0.05 between COAM-treated and saline-treated mice (Mann-Whitney U-test).

[9] = tested on: experimental autoimmune encephalomyelitis; test: EAE model: clinical course of active EAE; assay type: in vivo, SJL/J mice
Description: FIG. 11: The clinical course of active EAE is attenuated in COAM-treated mice. SJL/J mice were immunized subcutaneously with syngeneic spinal cord homogenate for induction of EAE. They were treated i.p. with 2 mg COAM (filled boxes) or saline (open boxes) on day 0 (A), day 8 (B) or days 0 and 7 (C) post immunization. The clinical course of EAE in these mice is shown as mean daily group score±sem. The disease parameters are given as an insert. Dead animals were scored 6 from the day of death until the end of the study. Arrows point to the days of COAM administration. *p<0.05; **p<0.01 for comparison with saline-treated group; Wilcoxon test or Chi-square test.
as §2
SJL/J mice were immunized subcutaneously with syngeneic spinal cord homogenate for induction of EAE. They were treated i.p. with 2 mg COAM (filled boxes) or saline (open boxes) on day 0 (A), day 8 (B) or days 0 and 7 (C) post immunization. The clinical course of EAE in these mice is shown as mean daily group score±sem. The disease parameters are given as an insert. Dead animals were scored 6 from the day of death until the end of the study. […]

[10] = tested on: peritoneal leukocytes; settings: for neutrophils among peritoneal cells: 2 mg unfractionated COAM i.p.
Description: In a first set of in vivo experiments, 2 mg of COAM (unfractionated, solution of 2 mg in 100 μl sterile pyrogen-free 0.9% NaCl) was injected intraperitoneally per mouse and leukocytes were counted and defined at different times after injection of groups of 3-4 mice.

[11] = tested on: Moloney Sarcoma Virus-induced tumor; settings: IP administration; De Clercq et al. 1972; cited from earlier work
[12] = EAE mice, 2 mg COAM i.p. on days 0 and 7

Sequence of human monocyte chemotactic protein-1/CCL2 (MCP-1/CCL2) (P13500 24-99): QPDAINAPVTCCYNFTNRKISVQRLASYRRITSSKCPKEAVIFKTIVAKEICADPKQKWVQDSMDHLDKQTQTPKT

Which “effect on tumor expansion” value [1] does the source give for heparin [reference compound] here?
The value was “some effect in the early phase”.

With chlorite-oxidized oxyamylose [COAM] as the substance, how does the “toxic effect on cell lines” value [2] read?
Its value is “not any toxic effect”.

What about the “elution position of mGCP-2 together with COAM (molecular weight range)” value ([3]; COAM incubated with mGCP-2, mGCP-2 alone eluted at about 10 kilodaltons) of the same substance?
The value was greater than 50 kilodaltons.

What about the “binding of mGCP-2” value ([3]; in solution, gel filtration, ELISA for mouse GCP-2) of the same substance?
The value was “GCP-2 binds to COAM in solution”.

What about the “elution of interleukin-8 in the presence of COAM” value [4] of the same substance?
The value was “coeluted with COAM at high relative molecular weight”.

What about the “elution of MCP-1 in the presence of COAM” value [5] of the same substance?
The value was “eluted at the position of the high molecular weight of COAM”.

And the “chemokine binding, conclusion from results with mGCP-2, IL-8, MCP-1, IP-10” value [6]?
The value was “general chemokine-binding factor”.

And the “additional effect of three injections instead of one injection” value ([1]; 100 μg intratumorally d1, d8, d15 versus d1 only)?
Its value is “No additional effect”.

What about the “overall mean tumor volume and weights as function of time” value ([1]; COAM-treated groups (100 μg intratumorally d1, or d1, d8, d15) versus saline) of the same substance?
Its value is “significantly reduced”.

What about the “tumor burden with exclusion of ulcerated open tumors” value ([1]; COAM-treated groups versus saline) of the same substance?
The value was “significant effect on tumor burden”.

And the “spleen weight (readout of systemic inflammation)” value ([1]; after intratumoral injection, compared with saline and heparin)?
Its value is “no overt splenomegaly”.

And the tumor volume ([1]; single COAM-treated group (COAM d1 only) versus saline, several experiments combined, p<0.015)?
The tumor volume was “significantly reduced”.

What about the tumor weight ([1]; single COAM-treated group (COAM d1 only) versus saline, several experiments combined, p<0.025) of the same substance?
Its tumor weight is “significantly reduced”.

And the tumor growth ([1]; single dose of 100 μg COAM intratumorally at Day 1 versus saline, 6 COAM-treated and 5 control mice)?
The tumor growth was “significant reduction of tumor growth”.

And the “effect on tumor expansion” value [1]?
Its value is “lasting and significant effect”.

And the tumor volume ([1]; triple treated COAM versus control group, p<0.030)?
The tumor volume was “significantly reduced”.

And the tumor weight ([1]; triple treated COAM versus control group, p<0.05)?
Its tumor weight is “significantly reduced”.

And the “protection against tumors in an immunocompromised host” value [7]?
The value was “protects an immunocompromised host against tumors”.

And the “mast cell population in the peritoneal cavity” value [8, 12]?
The value was “reduced; also recorded: decrease in mast cells”.

What about the “neutrophil recruitment to the peritoneal cavity” value [8, 12] of the same substance?
Its value is “increased neutrophil recruitment; also recorded: specific infiltration of neutrophils”.

What about the “CD11b^+Gr-1^+ cells in the peritoneal cavity” value (“CD11b^+Gr-1^+ cells” for short) ([8]; day 5 p.i., N = 8) of the same substance?
The value was 322.78 ± 79.43 (N = 8) ×10^4.

What about the “CD11b^+Gr-1^+ cells” value ([8]; day 9 p.i., N = 9, p<0.05 versus saline) of the same substance?
Its value is 1210.85 ± 272.05 (N = 9) * ×10^4.

And the “CD11b^+Gr-1^+ cells” value ([8]; day 14-16 p.i., N = 5, p<0.05 versus saline)?
The value was 276.66 ± 67.29 (N = 5) * ×10^4.

And the “neutrophil infiltration into spinal cord and brain” value ([8]; day 16 post immunization, 2 mg COAM i.p. on days 0 and 7, versus saline)?
The value was “reduced; also recorded: lower percentage of neutrophils”.

What about the “clinical course of active EAE (mean daily group score)” value ([9]; 2 mg COAM i.p. on day 0, day 8 or days 0 and 7 post immunization, versus saline) of the same substance?
Its value is “attenuated”.

What about the “protection against severe EAE” value ([9]; two injections of COAM) of the same substance?
The value was “protect a mammalian host against severe EAE”.

And the “survival and morbidity of the mice” value ([10]; 2 mg unfractionated COAM i.p. per mouse)?
Its value is “survived without apparent morbidity”.

What about the peritoneal cells ([10]; 2 mg unfractionated COAM i.p. per mouse, within 2 hours, control 126.000 cells) of the same substance?
The peritoneal cells was 630.000 cells.

What about the “neutrophils among peritoneal cells” value ([10]; at 4 h) of the same substance?
Its value is 64.1%.

What about the “neutrophils among peritoneal cells” value ([10]; at 8 h) of the same substance?
Its value is 70.3%.

What about the “neutrophils among peritoneal cells” value ([10]; within 2 hours, control 2.2%) of the same substance?
Its value is 18.1%.

What about the regression of tumors [11] of the same substance?
Its regression of tumors is “not show a regression of tumors”.
